This test relates to Male C3H mice. Kind of test: Animal model for hair growth stimulation (HGS) activity. Type of test: in vivo. Conditions: applied daily for 17 days to shaved, Nair-treated back; day 17 compared to control treatment. The procedure: Male C3H mice (˜42-48 days old and weighing ˜24 g) purchased from Harlan are acclimatized for 2 days and ˜2 cm^2 area on their back is shaved closely with an electric hair trimmer. To the shaved area, ˜300 μl of Nair lotion (NEW! Quick'n Easy 4 Minute Formula) is thinly smeared with a gloved fingertip for ˜30 sec. The area is wiped with Kimwipes for ˜15 sec and immediately washed under a gentle stream of lukewarm water for ˜50 sec and patted dry with Kimwipes. Test materials are applied (5 animals/test material) daily for 17 days. The shaved area is visually observed every day for anagen conversion and hair growth. Animal backs are photographed on day 8 and 17. In this model Triiodo thyronine (T3) has clear HGS activity (100% HGS activity), as evidenced by early onset of pigmentation and clear increase in hair length at day 17 compared to control treatment (60% ethanol, 20% propylene glycol and 20% Transcutol).

As for `N[C@@H](Cc1cc(I)c(Oc2ccc(O)c(I)c2)c(I)c1)C(=O)O` [Triiodo thyronine], the HGS activity worked out at 100%.

These data come from US20040086945A1, “Hairless protein-interacting partner complexes and methods thereto” (The Procter & Gamble Company, priority 2002, published 2004).
